Laboratory results: patent US20070128217A1 (priority 2003, published 2007)

Legend:
[1] = test system: antibodies in sera from SARS patients (sera 1a, 1b, 2, 6, 37, 62, London, SARS-yellow, SARS-green); format: binding, human; design: Binding of serum 6 to linear peptides of protein X1 of SARS-CoV Urbani / Binding of serum 37 to linear peptides of protein X1 of SARS-CoV Urbani / Binding of serum 6 to looped/cyclic peptide (PEPSCAN-ELISA) / Binding of serum 37 to looped/cyclic peptide (PEPSCAN-ELISA) / Binding of serum 37 to looped/cyclic peptides of protein X1 of SARS-CoV Urbani / Binding of serum 6 to linear peptides of protein X2 / Binding of serum 37 to linear peptides of protein X2 / Binding of serum 37 to looped/cyclic peptides of protein X2 of SARS-CoV Urbani / Binding of serum 6 to linear peptides of protein M of SARS-CoV Urbani / Binding of serum 37 to linear peptides of protein M of SARS-CoV Urbani / Binding of serum 6 to looped/cyclic peptides of protein M of SARS-CoV Urbani / Binding of serum 37 to looped/cyclic peptides of protein M of SARS-CoV Urbani / Binding of serum 6 to linear peptides of protein X3 of SARS-CoV Urbani / Binding of serum 37 to linear peptides of protein X3 of SARS-CoV Urbani / Binding of serum 37 to looped/cyclic peptides of protein X3 of SARS-CoV Urbani / Binding of serum 6 to linear peptides of protein X4 of SARS-CoV Urbani / Binding of serum 37 to linear peptides of protein X4 of SARS-CoV Urbani / Binding of serum 37 to looped/cyclic peptides of protein X4 of SARS-CoV Urbani / Binding of serum 6 to linear peptides of protein X5 of SARS-CoV Urbani / Binding of serum 37 to linear peptides of protein X5 of SARS-CoV Urbani / Binding of serum 37 to looped/cyclic peptides of protein X5 of SARS-CoV Urbani / Binding of serum 6 to linear peptides of protein N of SARS-CoV Urbani / Binding of serum 37 to linear peptides of protein N of SARS-CoV Urbani / Binding of serum 6 to linear peptide (PEPSCAN-ELISA) / Binding of serum 1a to looped/cyclic peptides of protein N of SARS-CoV Urbani / Binding of serum 1b to looped/cyclic peptides of protein N of SARS-CoV Urbani / Binding of serum 2 to looped/cyclic peptides of protein N of SARS-CoV Urbani / Binding of serum 6 to looped/cyclic peptides of protein N of SARS-CoV Urbani / Binding of serum 37 to looped/cyclic peptides of protein N of SARS-CoV Urbani / Binding of serum 62 to looped/cyclic peptides of protein N of SARS-CoV Urbani / Binding of serum London to looped/cyclic peptides of protein N of SARS-CoV Urbani / Binding of serum SARS-green to looped/cyclic peptides of protein N of SARS-CoV Urbani: unit not given here
[2] = test system: control sera (pooled serum of ten healthy LUMC hospital workers; commercial negative donor pooled serum from the Dutch bloodbank); format: binding, human; design: Binding of Control serum LUMC to linear peptides / Binding of Control serum Blood-bank to linear peptides / Binding of Control serum LUMC to looped peptides / Binding of Control Serum Blood-Bank to Looped peptides / Binding of Control serum LUMC to linear peptides of the protein M of SARS-CoV Urbani / Binding of Control serum Blood-bank to linear peptides of the protein M of SARS-CoV Urbani / Binding of Control serum LUMC to looped peptides of the protein M of SARS-CoV Urbani / Binding of Control Serum Blood-Bank to Looped peptides of the protein M of SARS-CoV Urbani: unit not given here
[3] = test system: rabbit serum obtained by immunizing a rabbit with the SARS-CoV strain Frankfurt 1; format: binding; design: Binding of a rabbit serum to linear peptides / Binding of a rabbit serum to looped peptides / Rabbit serum linear peptides / Rabbit serum looped peptides / Binding of a rabbit serum to linear peptides of protein N of SARS-CoV Urbani (Rabbit serum linear peptides) / Binding of a rabbit serum to looped/cyclic peptides of protein N of SARS-CoV Urbani (Rabbit serum looped peptides): unit not given here
[4] = test system: recombinant human anti-SARS-CoV antibody 03-018; format: binding; design: Binding of antibody 03-018 to linear peptides of the N protein of SARS-CoV Urbani / Binding of antibody 03-018 to looped/cyclic peptides of the N protein of SARS-CoV Urbani: unit not given here

Row | Sequence | Binding of serum 1a to linear peptides of protein N of SARS-CoV Urbani [1] | Binding of serum 1a to looped/cyclic peptides of protein N of SARS-CoV Urbani [1] | Binding of serum 1b to linear peptides of protein N of SARS-CoV Urbani [1] | Binding of serum 1b to looped/cyclic peptides of protein N of SARS-CoV Urbani [1] | Binding of serum 2 to linear peptides of protein N of SARS-CoV Urbani [1] | Binding of serum 2 to looped/cyclic peptides of protein N of SARS-CoV Urbani [1] | Binding of serum 6 to linear peptides of protein N of SARS-CoV Urbani [1] | Binding of serum 6 to looped/cyclic peptides of protein N of SARS-CoV Urbani [1] | Binding of serum 37 to linear peptides of protein N of SARS-CoV Urbani [1] | Binding of serum 37 to looped/cyclic peptides of protein N of SARS-CoV Urbani [1] | Binding of serum 62 to linear peptides of protein N of SARS-CoV Urbani [1] | Binding of serum 62 to looped/cyclic peptides of protein N of SARS-CoV Urbani [1] | Binding of serum London to linear peptides of protein N of SARS-CoV Urbani [1] | Binding of serum London to looped/cyclic peptides of protein N of SARS-CoV Urbani [1] | Binding of serum SARS-green to linear peptides of protein N of SARS-CoV Urbani [1] | Binding of serum SARS-green to looped/cyclic peptides of protein N of SARS-CoV Urbani [1] | Binding of serum SARS-yellow to linear peptides of protein N of SARS-CoV Urbani [1] | Binding of serum SARS-yellow to looped/cyclic peptides of protein N of SARS-CoV Urbani [1] | Binding of a rabbit serum to linear peptides of protein N of SARS-CoV Urbani (Rabbit serum linear peptides) [3] | Binding of a rabbit serum to looped/cyclic peptides of protein N of SARS-CoV Urbani (Rabbit serum looped peptides) [3] | further results
1 | AFFGMSRIGMEVTPS | 0.3 | 0.4 | 0.1 | 0.3 | 0.2 | 0.4 | 0.2 | 0.2 | 0.6 | 0.6 | 0.7 | 0.6 | 0.5 | 0.4 | 0.2 | 0.4 | 0.5 | 0.5 | 0.1 | 0.5 | Control Serum Blood-Bank Looped peptides [2]: 0.6; Control serum Blood-bank linear peptides [2]: 0.7; Control serum LUMC linear peptides [2]: 0.6; Control serum LUMC looped peptides [2]: 0.8; Binding of antibody 03-018 to linear peptides of the N protein of SARS-CoV Urbani [4]: 0.1; Binding of antibody 03-018 to looped/cyclic peptides of the N protein of SARS-CoV Urbani [4]: 0.2
2 | ALALLLLDRLNQLES | – | 0.4 | – | 0.2 | – | 0.4 | – | 0.2 | – | 0.8 | – | 0.7 | – | 0.5 | – | 0.4 | – | 0.5 | 0.2 | 0.6 | Binding of serum 1a to linear peptide (PEPSCAN-ELISA) [1]: 0.3; Binding of serum 1b to linear peptide (PEPSCAN-ELISA) [1]: 0.2; Binding of serum 2 to linear peptide (PEPSCAN-ELISA) [1]: 0.1; Binding of serum 6 to linear peptide (PEPSCAN-ELISA) [1]: 0.2; Binding of serum 37 to linear peptide (PEPSCAN-ELISA) [1]: 0.5; Binding of serum 62 to linear peptide (PEPSCAN-ELISA) [1]: 0.6; Binding of serum London to linear peptide (PEPSCAN-ELISA) [1]: 0.5; Binding of serum SARS-green to linear peptide (PEPSCAN-ELISA) [1]: 0.4; Binding of serum SARS-yellow to linear peptide (PEPSCAN-ELISA) [1]: 0.5; Binding of Control Serum Blood-Bank to Looped peptides [2]: 0.8; Binding of Control serum Blood-bank to linear peptides [2]: 0.7; Binding of Control serum LUMC to linear peptides [2]: 0.7; Binding of Control serum LUMC to looped peptides [2]: 0.8; Binding of antibody 03-018 to linear peptides of the N protein of SARS-CoV Urbani [4]: 0.1; Binding of antibody 03-018 to looped/cyclic peptides of the N protein of SARS-CoV Urbani [4]: 0.3
3 | APRITFGGPTDSTDN | 0.2 | 0.4 | 0.2 | 0.2 | 0.2 | 0.3 | 0.2 | 0.2 | 0.8 | 0.6 | 0.7 | 0.6 | 0.6 | 0.2 | 0.6 | 0.6 | 0.3 | 0.4 | 0.2 | 0.6 | Binding of Control Serum Blood-Bank to Looped peptides [2]: 0.6; Binding of Control serum Blood-bank to linear peptides [2]: 0.6; Binding of Control serum LUMC to linear peptides [2]: 0.5; Binding of Control serum LUMC to looped peptides [2]: 0.6; Recognition of the peptide by antibody 03-018 [4]: recognized
4 | APSASAFFGMSRIGM | 0.2 | 0.4 | 0.1 | 0.3 | 0.2 | 0.7 | 0.1 | 0.4 | 0.5 | 0.7 | 0.5 | 0.9 | 0.6 | 2.0 | 0.2 | 0.5 | 0.4 | 0.6 | 0.1 | 0.4 | Control Serum Blood-Bank Looped peptides [2]: 0.8; Control serum Blood-bank linear peptides [2]: 0.7; Control serum LUMC linear peptides [2]: 0.5; Control serum LUMC looped peptides [2]: 0.6; Binding of antibody 03-018 to linear peptides of the N protein of SARS-CoV Urbani [4]: 0.1; Binding of antibody 03-018 to looped/cyclic peptides of the N protein of SARS-CoV Urbani [4]: 0.2
